Data on two substances can be found in patent publication US5017557A, “Treatment of infertility with somatotrophin releasing factor” (Industria Farmaceutica Serono S.p.A., priority 1987, dated 1991).

Entries after “also recorded” stand apart in the source; their conditions may differ. No end group written: not given here.

The test system of assay [1] is anti-GRF obtained in the rabbit (Amersham) against human GRF-44. The note with it: rabbit anti-serum against human GRF-44 (Amersham); cited from earlier work.
Assay [2] has as its system follicle in maturative growth. Description: echographic monitoring of follicle-genesis (volume/diameter of the follicle in maturative growth) in women. Format: in vivo, human (women). How it is done: In the clinical trials reported below, GRF-29 was used in the form of lyophilized ampoules containing 100 or 150 micrograms (mcg) of GRF and 10 milligrams (mg) of mannitol as excipient. The lyophilized substance, dissolved in 2 ml of physiologic saline, was administered by the intravenous route.
In a clinical study carried out in conformity with the present invention women, both with normal follicle-genesis (as control) and follicle-genesisdeficiency were treated.
The study consisted in echographic and hormonal monitoring of follicle-genesis during which the volume of the follicle in maturative growth and the plasma levels of 17-beta estradiol and 17-alpha OH progesterone were recorded.
In the controls with normal follicle-genesis, 2 monitorings of the follicle-genesis were carried out in accordance with the above mentioned procedures: the first verified the basal situation and the second was under administration of GRF-29 at the dosage of 100 or 150 mcg/day i.v. from the 1st to the 7th day of the cycle.
In patients with follicle-genesis deficiency, monitorings of the follicle-genesis were carried out: without any medicinal administration (as control); under administration of GRF-29 at the dosage of 100 or 150 mcg/day i.v. from the 1st to the 7th day of the cycle; under administration of FSH (METRODIN® at the dosage of 75 or 150 I.U./day i.m. for 7 days; under the combined administration of FSH+GRF at the above dosage.

The subject of the next assay is spermatozoa. Description: treatment of male infertility: seminal parameters. It is filed as in vivo, human (patients). To be noted: oligospermia or azoospermia; 5 mcg/kg s.c. 3 times a week for three months; controls at 45 days and 3 months. The method, then: Patients suffering spermatogenesis deficiences of various entity with oligospermia or azoospermia, selected according to the criteria of the protocol, were treated for a period of three months with GRF-29 at the dosage of 5 mcg/kg s.c. 3 times a week.
The first control was carried out after 45 days from commencement of therapy, and the second control after 3 months.

The test system of the next assay is Sertoli cells. Description: GRF binding to isolated Sertoli cells. On the set-up: species or system rat. The text has this:
Sertoli cells were isolated from the testicles of 14 day old rats, according to the techniques already decribed (A. Fabbri, et al.--Opiate receptors are present in the rat testis: Identification and localization on Sertoli cells. Endocrinology 117: 2544-2546, 1985). Briefly, the procedure consisted in the separation of the tubular compartment from the Leydig cells by means of enzymatic dispersion with collagenase and subsequent treatment of the tubules with trypsin and collagenase. The separated cells were applied to 48 well Costar plates at the concentration of approximately 100,000 cells per well. The cells were allowed to adhere to the bottom of the wells for 24 hours in a metabolic incubator at 34° C., in 95% O2 /5% CO2. The cells were then washed and incubated in TC 199 10 mM TRIS medium in the presence of iodine labelled GRF-44 at the concentration of 10^-11 M for 60 minutes at 4° C. in the presence or absence of 10^-6 M cold (unlabelled) human GRF-44. Then the cells were washed 3 times with PBS+0.5% BSA at 4° C.; the radio-activity bound to the cells was then solubilized with 0.1N NaOH and read in a gammacounter.

Assay [3] deals with serum levels of HGH, Sm-C, prolactin, LH, FSH. To be noted: intravenous administration, normal subjects during the menstrual cycle; cited from earlier work.

Turning to “GRF-29: biologically active fragment of Somatotrophin releasing factor; lyophilized ampoules of 100 or 150 mcg with 10 mg mannitol (YADAIFTNSYRKVLGQLSARKLLQDIMSR; ends and bridges not checked; UniProt P01286 32-60, looked up, fragment)”, the Cross-reactivity in assay [1] was 100%. Further, the “observation of the cycle (follicular activation, dominance, ovulation, menstrual flow)” value in assay [2] (Case 1, normal follicle-genesis, GRF-29 100 mcg/day i.v.) is “presence of follicular activation and evidence of a dominant follicle between the 13th and the 14th day of the cycle, with ovulation between the 15th and 16th day”; in assay [2] (Case 3, patient, GRF-29 150 mcg/day i.v.) it was “presence of follicular activation, dominance and dehiscence”; in assay [2] (Case 4, patient, GRF-29 100 mcg/day i.v.) it was “absence of ovulation but follicle-genesis was activated; also recorded: Menstrual flow occurred spontaneously on the 33rd day”; in assay [2] (Case 6, patient, GRF-29 150 mcg/day i.v. day 1-7), “good ovarian activation was observed, followed by the growth of two follicles (within a micropolycistic ovary, as stated above), which presented an involution around the 17th day of the cycle”; in assay [2] (Case 7, patient, GRF-29 150 mcg/day i.v. day 1-7) it was “presence of echographic notes of ovarian activation, but absence of follicular dominance”. In addition, the “overall effect on follicle growth and ovulation” value in assay [2] (administration during the first phase of the cycle, all cases) was “facilitates follicle growth and anticipates, or even induces, ovulation (dehiscence)”. In addition, the “seminal parameters (number of spermatozoa, motility)” value in the assay with spermatozoa is “improvement of the seminal parameters, and especially an increase in the number of spermatozoa and their motility”.

Turning to “GRF: Somatotrophin releasing factor; measured as immunoreactivity by RIA, binding done with iodine labelled human GRF-44”, the “specific binding of GRF to Sertoli cells” value in the assay on Sertoli cells (iodine labelled GRF-44 10^-11 M, 60 minutes at 4° C., with or without 10^-6 M cold human GRF-44) was 2.5 fmoles of peptide/70 mcg of protein; with Sertoli cells (recalculated per mg of protein), “about 40 fmoles/mg of protein”. Also, the “effect on serum hormone levels” value in assay [3] is “produces an increase in serum levels of HGH and Sm-C but not of prolactin, LH or FSH”.
